IC50 data for 24 compounds are collected here from US20210323977A1, “PYRROLIDINYL AMIDE COMPOUNDS FOR THE TREATMENT OF AUTOIMMUNE DISEASE” (Hoffmann-La Roche Inc., priority 2018, published 2021).

The target of the assay is T1, human TLR8 (Homo sapiens, UniProt Q9NR97).
T1 sequence (Q9NR97 27-1041): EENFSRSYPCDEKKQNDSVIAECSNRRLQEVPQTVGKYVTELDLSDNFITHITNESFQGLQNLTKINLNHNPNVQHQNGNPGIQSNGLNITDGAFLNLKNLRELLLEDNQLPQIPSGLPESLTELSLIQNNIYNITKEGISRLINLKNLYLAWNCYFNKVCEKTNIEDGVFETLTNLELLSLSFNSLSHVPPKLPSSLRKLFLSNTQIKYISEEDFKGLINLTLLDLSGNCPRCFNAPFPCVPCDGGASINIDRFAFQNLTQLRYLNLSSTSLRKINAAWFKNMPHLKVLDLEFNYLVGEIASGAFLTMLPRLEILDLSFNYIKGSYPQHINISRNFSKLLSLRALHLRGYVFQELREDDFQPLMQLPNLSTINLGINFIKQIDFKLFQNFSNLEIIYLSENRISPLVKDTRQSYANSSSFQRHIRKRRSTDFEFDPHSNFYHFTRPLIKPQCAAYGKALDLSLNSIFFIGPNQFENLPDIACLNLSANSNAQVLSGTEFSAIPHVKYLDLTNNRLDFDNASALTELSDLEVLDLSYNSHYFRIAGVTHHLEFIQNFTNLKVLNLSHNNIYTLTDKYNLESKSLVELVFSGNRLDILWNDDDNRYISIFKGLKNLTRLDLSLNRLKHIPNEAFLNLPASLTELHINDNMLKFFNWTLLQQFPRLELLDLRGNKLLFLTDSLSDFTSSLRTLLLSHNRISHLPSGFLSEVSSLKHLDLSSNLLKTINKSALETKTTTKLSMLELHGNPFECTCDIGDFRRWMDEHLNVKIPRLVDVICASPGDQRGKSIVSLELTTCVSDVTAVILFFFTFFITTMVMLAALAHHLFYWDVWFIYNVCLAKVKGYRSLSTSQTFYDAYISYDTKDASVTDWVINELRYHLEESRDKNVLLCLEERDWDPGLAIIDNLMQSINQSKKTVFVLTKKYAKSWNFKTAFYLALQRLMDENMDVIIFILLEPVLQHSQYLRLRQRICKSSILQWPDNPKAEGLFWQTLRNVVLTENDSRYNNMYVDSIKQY
The experiment in a line: HEK293-Blue-hTLR-8 cells assay. The class given is cell-based. To be noted: HEK293-Blue-hTLR8 cells, SEAP reporter, R848 stimulation, 20 hrs. The source says: HEK293-Blue-hTLR-8 Cells Assay:
A stable HEK293-Blue-hTLR-8 cell line was purchased from InvivoGen (Cat. #: hkb-htlr8, San Diego, Calif., USA). These cells were originally designed for studying the stimulation of human TLR8 by monitoring the activation of NF-κB. A SEAP (secreted embryonic alkaline phosphatase) reporter gene was placed under the control of the IFN-β minimal promoter fused to five NF-κB and AP-1-binding sites. The SEAP was induced by activating NF-κB and AP-1 via stimulating HEK-Blue hTLR8 cells with TLR8 ligands. Therefore the reporter expression was declined by TLR8 antagonist under the stimulation of a ligand, such as R848, for incubation of 20 hrs. The cell culture supernatant SEAP reporter activity was determined using QUANTI-Blue™ kit (Cat. #: rep-qb1, Invivogen, San Diego, Ca, USA) at a wavelength of 640 nm, a detection medium that turns purple or blue in the presence of alkaline phosphatase.
HEK293-Blue-hTLR8 cells were incubated at a density of 250,000-450,000 cells/mL in a volume of 170 μL in a 96-well plate in Dulbecco's Modified Eagle's medium (DMEM) containing 4.5 g/L glucose, 50 U/mL penicillin, […], […], 2 mM L-glutamine, 10% (v/v) heat-inactivated fetal bovine serum with addition of 20 μL test compound in a serial dilution in the presence of final DMSO at 1% and 10 sL of 60 uM R848 in above DMEM, perform incubation under 37° C. in a CO2 incubator for 20 hrs. Then 20 μL of the supernatant from each well was incubated with 180 sL Quanti-blue substrate solution at 37° C. for 2 hrs and the absorbance was read at 620˜655 nm using a spectrophotometer. The signalling pathway that TLR8 activation leads to downstream NF-κB activation has been widely accepted, and therefore similar reporter assay was modified for evaluating TLR8 antagonist.

pIC50: −log10 of the molar value.

In general, pIC50 refers to the IC50 on a negative log10 scale, so that one unit is a factor of ten. In turn, `CN1CCC(NC(=O)[C@@H]2CN(c3ccc(C#N)c4ncccc34)C[C@H]2C(F)(F)F)CC1` (relative stereo) [Example 17, Trans-1-(8-cyano-5-quinolyl)-N-(1-methyl-4-piperidyl)-4-(trifluoromethyl)pyrrolidine-3-carboxamide] showed a pIC50 of 7.18.

Regarding `O=C(NC1CC2CCCC(C1)N2)C1CN(c2ccc(C(F)(F)F)c3nccnc23)CC12CC2` (stereo not drawn) [Example 10, N-(9-azabicyclo[3.3.1]nonan-3-yl)-5-[8-(trifluoromethyl)quinoxalin-5-yl]-5-azaspiro[2.4]heptane-7-carboxamide], the pIC50 was 6.61. The result for `N#Cc1ccc(N2CC(C(=O)NC[C@@H]3CNCCO3)C3(CC3)C2)c2nccnc12` (single isomer, unassigned) [Example 71A] reads 7.12. `O=C(NC1CC2CNCC(C2)C1)C1CN(c2ccc(C(F)(F)F)c3nccnc23)CC12CC2` (stereo not drawn) [Example 15, N-(3-azabicyclo[3.3.1]nonan-7-yl)-5-[8-(trifluoromethyl)quinoxalin-5-yl]-5-azaspiro[2.4]heptane-7-carboxamide] showed a pIC50 of 6.81.

`O=C(NC1C2CCC1CNC2)C1CN(c2ccc(C(F)(F)F)c3nccnc23)CC12CC2` (stereo not drawn) [Example 12, N-(3-azabicyclo[3.2.1]octan-8-yl)-5-[8-(trifluoromethyl)quinoxalin-5-yl]-5-azaspiro[2.4]heptane-7-carboxamide] gave a pIC50 of 6.64. The result for `C[C@@H]1CN(c2ccc(C#N)c3ncccc23)C[C@H]1C(=O)N1CCC2(CCNC2)C1` (relative stereo) [Example 53, Trans-5-[3-(2,7-diazaspiro[4.4]nonane-2-carbonyl)-4-methyl-pyrrolidin-1-yl]quinoline-8-carbonitrile] reads 6.65; that for `CC[C@@H]1CN(c2ccc(C#N)c3ncccc23)C[C@H]1C(=O)NC1CCN(C)CC1` (relative stereo) [Example 29, Trans-1-(8-cyano-5-quinolyl)-4-ethyl-N-(1-methyl-4-piperidyl)pyrrolidine-3-carboxamide], 7.02. The result for `O=C(NC1CC2COCC(C1)N2)C1CN(c2ccc(C(F)(F)F)c3nccnc23)CC12CC2` (stereo not drawn) [Example 6, N-(3-oxa-9-azabicyclo[3.3.1]nonan-7-yl)-5-[8-(trifluoromethyl)quinoxalin-5-yl]-5-azaspiro[2.4]heptane-7-carboxamide] reads 6.54; that for `N#Cc1ccc(N2C[C@H](C(=O)NC3CCN(C4CCNCC4)CC3)[C@@H](C(F)(F)F)C2)c2nccnc12` [Example 35, (3R,4R)-1-(8-Cyanoquinoxalin-5-yl)-N-[1-(4-piperidyl)-4-piperidyl]-4-(trifluoromethyl)pyrrolidine-3-carboxamide], 7.42. In turn, `CN1CCCC(CNC(=O)C2CN(c3ccc(C#N)c4ncccc34)CC23CC3)C1` (stereo not drawn) [Example 51, 5-(8-Cyano-5-quinolyl)-N-[(1-methyl-3-piperidyl)methyl]-5-azaspiro[2.4]heptane-7-carboxamide] showed a pIC50 of 6.40. In turn, `Cc1ccc(N2C[C@H](C(=O)NC3CCN(C)CC3)[C@@H](C)C2)c2nccnc12` [Example 33, (3R,4R)-4-Methyl-N-(1-methyl-4-piperidyl)-1-(8-methylquinoxalin-5-yl)pyrrolidine-3-carboxamide] had a pIC50 of 7.12.

Compound `CN1CCC(NC(=O)C2CN(c3ccc(C#N)c4nccnc34)CC23CC3)CC1` (single isomer, unassigned) [Example 7A, 5-(8-Cyanoquinoxalin-5-yl)-N-(1-methyl-4-piperidyl)-5-azaspiro[2.4]heptane-7-carboxamide] showed a pIC50 of 8.15. Under `CN1CCC(NC(=O)C2CN(c3ccc(C#N)c4ncccc34)CC23CC3)CC1` (single isomer, unassigned) [Example 41A, 5-(8-Cyano-5-quinolyl)-N-(1-methyl-4-piperidyl)-5-azaspiro[2.4]heptane-7-carboxamide] stands 6.72; under `C[C@H]1CN(c2ccc(C#N)c3nccnc23)C[C@@H]1C(=O)NC1CCN(C2CCNCC2)CC1` [Example 60, (3R,4R)-1-(8-cyanoquinoxalin-5-yl)-4-methyl-N-[1-(4-piperidyl)-4-piperidyl]pyrrolidine-3-carboxamide], 7.32; under `C[C@@H]1CN(c2ccc(C#N)c3ncccc23)C[C@H]1C(=O)N[C@H]1CNC[C@H]1F` [Example 56, Trans-1-(8-cyano-5-quinolyl)-N-[(3S,4R)-4-fluoropyrrolidin-3-yl]-4-methyl-pyrrolidine-3-carboxamide], 6.43. For the compound `CN1CCC(NC(=O)[C@@H]2CN(c3ccc(C#N)c4ncccc34)C[C@H]2C2CC2)CC1` (relative stereo) [Example 14, Trans-1-(8-cyano-5-quinolyl)-4-cyclopropyl-N-(1-methyl-4-piperidyl)pyrrolidine-3-carboxamide], the pIC50 was 6.71. With `NC1CC(NC(=O)C2CN(c3ccc(C(F)(F)F)c4nccnc34)CC23CC3)C1` (stereo not drawn) [Example 38, N-(3-Aminocyclobutyl)-5-[8-(trifluoromethyl)quinoxalin-5-yl]-5-azaspiro[2.4]heptane-7-carboxamide], the negative-log IC50 (pIC50) is 6.76.

Compound `C[C@H]1CN(c2ccc(Cl)c3ncccc23)C[C@@H]1C(=O)NC1CCN(C)CC1` [Example 50, (3R,4R)-1-(8-chloro-5-quinolyl)-4-methyl-N-(1-methyl-4-piperidyl)pyrrolidine-3-carboxamide] showed a pIC50 of 6.83. Regarding `N#Cc1ccc(N2CC(C(=O)NC[C@@H]3CNCCO3)C3(CC3)C2)c2nccnc12` (single isomer, unassigned) [Example 71B], the pIC50 is 6.87. The pIC50 values of the last two compounds are within 0.2 log units of each other. Under `C[C@H]1CN(c2ccc(C(F)(F)F)c3nccnc23)C[C@@H]1C(=O)NC1CCN(C)CC1` [Example 5, (3R,4R)-4-methyl-N-(1-methyl-4-piperidyl)-1-[8-(trifluoromethyl)quinoxalin-5-yl]pyrrolidine-3-carboxamide] stands 7.96; under `CN(C)CC1CC(NC(=O)C2CN(c3ccc(C(F)(F)F)c4nccnc34)CC23CC3)C1` (stereo not drawn) [Example 26, N-[3-[(dimethylamino)methyl]cyclobutyl]-5-[8-(trifluoromethyl)quinoxalin-5-yl]-5-azaspiro[2.4]heptane-7-carboxamide], 7.36. Under `N#Cc1ccc(N2CC(C(=O)NC3CCCNCC3)C(C(F)(F)F)C2)c2cccnc12` (single isomer, unassigned) [Example 30B, N-(azepan-4-yl)-1-(8-cyano-5-quinolyl)-4-(trifluoromethyl)pyrrolidine-3-carboxamide] stands 6.76; under `C[C@@H]1CN(c2ccc(C(F)(F)F)c3nccnc23)C[C@H]1C(=O)NC1CCN(C)CC1` [Example 25, (3S,4S)-4-Methyl-N-(1-methyl-4-piperidyl)-1-[8-(trifluoromethyl)quinoxalin-5-yl]pyrrolidine-3-carboxamide], 6.82.

Consider `NC1CC2(C1)CC(NC(=O)C1CN(c3ccc(C(F)(F)F)c4nccnc34)CC13CC3)C2` (stereo not drawn) [Example 22, N-(6-aminospiro[3.3]heptan-2-yl)-5-[8-(trifluoromethyl)quinoxalin-5-yl]-5-azaspiro[2.4]heptane-7-carboxamide], for which the pIC50 was 7.19.
